Several values for one entry are separate records, joined by “and”; a condition that tells them apart may be missing. Identical values can stand only once.

Here are results for 3 molecules from patent publication US10344330B2, “Glatiramer acetate response biomarker mRNA potency assay” (Mylan Inc., priority 2013, dated 2019).

In this test the test system is mIL-2 mRNA in primary LN cells. Description: mIL-2 mRNA by real-time PCR in ex vivo stimulated LN cells of immunized (SJL/J×BALB/C)F1 mice (Example I). The format is cell-based, mouse. As for the experimental part: For each of the three experiments summarized in Table 1, female (SJL/J×BALB/C) F1 hybrid (Jackson Laboratory) mice were immunized by footpad injection with either 250 μg GMA (Mylan Pharmaceuticals, Inc.) and CFA (Sigma Aldrich), or Mannitol and CFA (as a negative control). The GA solution was diluted to 5 mg/mL with Dulbecco's Phosphate-buffered saline. A dose solution was then prepared by mixing the diluted GA solution (5 mg/mL) and CFA (1:1) until well-emulsified. Each mouse received a total injection volume of 0.1 mL (250 μg GA). Animals were immunized on Day 0. Immunized animals were sacrificed via cervical dislocation on Day 10 following immunization. Lymph nodes in the axillary and popliteal regions were removed aseptically in a purifier clean bench, and transferred into a sterile petri dish containing about 5 mL of sterile RPMI 1640 medium. The LN were washed 3 times with −5 mL of RPMI medium, and the LN cells isolated by pressing the LN with a syringe plunger. The cell suspension was transferred to a sterile 50 mL conical tube, washed in about 40 mL of RPMI medium by centrifuging at about 200×g for 10 minutes at about 4° C., and re-suspended in RPMI 1640 medium for cell counting. The cell suspension was centrifuged at about 200×g for 10 minutes at about 4° C. and re-suspended in ice cold enriched DCCM-1 medium. The LN cells (2.5×10^6 cells/cm^2) were plated in the wells of a 48-well tissue culture plate and stimulated with GA or controls.
After incubation at about 37° C. in a humidified CO2 incubator for the indicated time, total RNA was isolated from the treated cells using the RNeasy Mini Kit (Qiagen, Cat. #74104). Cells were lysed in RNA lysis buffer, transferred to Qiagen spin columns, washed, and the RNA eluted with DEPC-treated water from the column. cDNA was synthesized from each RNA sample using the High Capacity cDNA Reverse Transcription Kit (Applied Biosystems, Cat. #4368814). The PCR reactions were carried out using TaqMan Universal PCR Master Mix (Applied Biosystems, Cat. #4304437) and specific primers/probe for the target cytokine and reference internal controls. Primers/probes for mouse cytokines IL-2 (Cat. #4331182; ID Mm00434256_m1), IL-4 (Cat. #4331182; ID Mm00445259_m1), IL-5 (Cat. #4331182; ID Mm00439646_m1), IFN-γ (Cat. #4331182; ID Mm01168134_m1), IL-10 (ID Mm00439614_m1), and TNF-α (Mm00443260_g1) were obtained from Life Technologies. Expression of cytokine mRNA was quantitatively analyzed using a Real-Time PCR system (7500, Applied Biosystems).
(DCCM1 from Beit Haemek Ltd.; Cat. No. 05 010 1A). There was no MBP treatment for the 2-hour groups. (MBP from Bachem; Cat No. H-1964.0001) For each evaluation time DCCM1 was studied and compared, i.e. 2 hours represents 2 hours with DCCM1, 4 hours=4 hours, etc., and served as representative control for each timepoint.
For Experiment 3, a 96-well plate format was used, and RNA isolation was carried out using an SV 96 Total RNA Isolation System (Promega). Immunization of Groups 3A and 4A are described in Table 1. […] Y-axis: linear mRNA fold-changes of mIL-2. X-axis: log Cop and GA (Mylan GMA) concentration values. The best fit for the data set was performed using the logarithmic model.
Group 1B animals were female (SJL/J×BALB/C) F1 hybrid (Jackson Laboratory) mice immunized by footpad injection with either 250 μg GA and CFA, or Mannitol and CFA (as a negative control). A dose solution was prepared by mixing a diluted GA solution (5 mg/mL) and CFA (1:1).
For orientation: Real-time PCR tracks product formation cycle by cycle.

Setting [1] is: Experiment 1, GA-immunized (SJL/J×BALB/C)F1, 2 hour post stimulation, GA 10, ConA 2.5 μg/mL.
[2] abbreviates: Experiment 1, GA-immunized (SJL/J×BALB/C)F1, 4 hour post stimulation, GA 10, MBP 10, ConA 2.5 μg/mL.
The mark [3] stands for this setting: Experiment 1, GA-immunized (SJL/J×BALB/C)F1, 6 hour post stimulation, GA 10, MBP 10, ConA 2.5 μg/mL.
[4] abbreviates: Experiment 1, GA-immunized (SJL/J×BALB/C)F1, 24 hour post stimulation, GA 10, MBP 10, ConA 2.5 μg/mL.
The mark [5] stands for this setting: Experiment 3, Group 3A (GA + CFA), stimulation 2.5 μg/mL, 6 hours.
The mark [6] stands for this setting: Experiment 3, Group 4A controls, *Animals not immunized, MBP 10, ConA 2.5 μg/mL, 6 hours.
Setting [7] is: Group 1B (GA + CFA), 4 hours post-stimulation, GA 10, MBP 10, ConA 2.5 μg/mL, reference 18S rRNA.
[8] abbreviates: Group 1B (GA + CFA), 6 hours post-stimulation, GA 10, MBP 10, ConA 2.5 μg/mL, reference 18S rRNA.
[9] abbreviates: Group 2B (Mannitol + CFA), 4 hours post-stimulation, GA 10, MBP 10, ConA 2.5 μg/mL, reference 18S rRNA.
Where [10] appears, read: Group 2B (Mannitol + CFA), 6 hours post-stimulation, GA 10, MBP 10, ConA 2.5 μg/mL, reference 18S rRNA.
The mark [11] stands for this setting: Experiment 3, Group 3A (GA + CFA), stimulation 10 μg/mL, 6 hours.

As for “Concanavalin A [ConA, reference compound]”, the “mIL-2 mRNA Level” value amounted to 183.4 fold change vs control under setting [1]; 131.5 fold change vs control under setting [2]; 105.0 fold change vs control under setting [3]; 16.2 fold change vs control under setting [4]; 111.0 fold change vs control under setting [5]; 91.4 fold change vs control under setting [6]. Also, the “mIL-2 mRNA Level” value under setting [7] was 256.3 fold change vs control, the “mIL-2 mRNA Level” value under setting [8] was 54.3 fold change vs control, the “mIL-2 mRNA Level” value under setting [9] stood at 517.9 fold change vs control and the “mIL-2 mRNA Level” value under setting [10] was 277.9 fold change vs control.
In the case of “L-glutamic acid polymer with L-alanine, L-lysine and L-tyrosine, acetate (salt) [GA]”, the “mIL-2 mRNA Level” value runs as follows: under setting [1], 5.3 fold change vs control; under setting [2], 12.2 fold change vs control; under setting [3], 20.8 fold change vs control; under setting [4], 3.6 fold change vs control; (Experiment 3, Group 3A (GA + CFA), stimulation 1 μg/mL, 6 hours) 9.7 fold change vs control; under setting [5], 20.2 fold change vs control. Further, the “mIL-2 mRNA Level” value by setting is: (Experiment 3, Group 3A (GA + CFA), stimulation 5 μg/mL, 6 hours) 22.6 fold change vs control; under setting [11], 26.1 fold change vs control; (Experiment 3, Group 3A (GA + CFA), stimulation 15 μg/mL, 6 hours) 27.3 fold change vs control; (Experiment 3, Group 3A (GA + CFA), stimulation 25 μg/mL, 6 hours) 34.7 fold change vs control; (Experiment 3, Group 4A (Mannitol + CFA), stimulation 5 μg/mL, 6 hours) 3.0 fold change vs control; (Experiment 3, Group 4A (Mannitol + CFA), stimulation 10 μg/mL, 6 hours) 1.6 fold change vs control. Further, the “mIL-2 mRNA Level” value was 1.7 fold change vs control and 1.5 fold change vs control (Experiment 3, Group 4A (Mannitol + CFA), stimulation 25 μg/mL, 6 hours); 16.7 fold change vs control under setting [7]; 10.2 fold change vs control under setting [8]; 1.8 fold change vs control under setting [9]; 1.4 fold change vs control under setting [10]. The “mIL-2 mRNA level increase vs DCCM-1-stimulated control” value (Group 1B, 4 and 6 hours (text summary of Table 8)) is listed as “at least 10 fold”.

B1: MBP: myelin basic protein, a negative control (protein, UniProt P02686 1-304, looked up)
Myelin basic protein: MGNHAGKRELNAEKASTNSETNRGESEKKRNLGELSRTTSEDNEVFGEADANQNNGTSSQDTAVTDSKRTADPKNAWQDAHPADPGSRPHLIRLFSRDAPGREDNTFKDRPSESDELQTIQEDSAATSESLDVMASQKRPSQRHGSKYLATASTMDHARHGFLPRHRDTGILDSIGRFFGGDRGAPKRGSGKDSHHPARTAHYGSLPQKSHGRTQDENPVVHFFKNIVTPRTPPPSQGKGRGLSLSRFSWGAEGQRPGFGYGGRASDYKSAHKGFKGVDAQGTLSKIFKLGGRDSRSGSPMARR
B1: the “mIL-2 mRNA Level” value came out at 1.0 fold change vs control under setting [2]; 0.3 fold change vs control under setting [3]; 0.6 fold change vs control under setting [4]; 0.9 fold change vs control under setting [11]; 1.5 fold change vs control under setting [6]; 0.5 fold change vs control under setting [7]. Also, the “mIL-2 mRNA Level” value by setting is: under setting [8], 0.3 fold change vs control; under setting [9], 0.4 fold change vs control; under setting [10], 0.5 fold change vs control.
